≈ marks a conversion by molar mass, not a printed value. Positions of bridges follow the written chain, without caps; N, C: chain ends. Non-standard residues stand in square brackets, D forms with d. Residues, ends and D or L forms follow the SMILES beside them. dNMeF = CN[C@H](Cc1ccccc1)C(=O)O
Key:
[1] = system: Staphylococcus aureus; assay: Antibacterial activity against methicillin-resistant Staphylococcus aureus after 24 hrs; format: functional
[2] = system: Staphylococcus aureus; assay: Antibacterial activity against methicillin-sensitive Staphylococcus aureus after 24 hrs; format: functional
[3] = system: Staphylococcus aureus; assay: Antibacterial activity against methicillin-resistant Staphylococcus aureus ATCC 33591 after 24 hrs; format: functional; settings: ATCC 33591, 24 h
[4] = system: Enterococcus faecalis; assay: Antibacterial activity against vancomycin-resistant Enterococcus faecalis isolate 1001 after 24 hrs; format: functional; settings: isolate 1001, 24 h
[5] = system: Staphylococcus saprophyticus; assay: Antibacterial activity against Staphylococcus saprophyticus ATCC 49907 after 24 hrs; format: functional; settings: ATCC 49907, 24 h
[6] = system: Enterococcus faecalis; assay: Antibacterial activity against vancomycin-resistant Enterococcus faecalis ATCC 29212 after 24 hrs; format: functional; settings: ATCC 29212, 24 h
[7] = system: Staphylococcus saprophyticus; assay: Antibacterial activity against Staphylococcus saprophyticus ATCC BAA 750 after 24 hrs; format: functional; settings: ATCC BAA 750, 24 h
[8] = system: Staphylococcus saprophyticus; assay: Antibacterial activity against Staphylococcus saprophyticus ATCC 15305 after 24 hrs; format: functional; settings: ATCC 15305, 24 h
[9] = system: Staphylococcus aureus; assay: Antibacterial activity against Staphylococcus aureus ATCC 29213 after 24 hrs; format: functional; settings: ATCC 29213, 24 h
[10] = system: Staphylococcus aureus; assay: Antibacterial activity against methicillin-resistant Staphylococcus aureus isolate 21455 after 24 hrs; format: functional; settings: isolate 21455, 24 h
[11] = system: Bacillus cereus; assay: Antibacterial activity against Bacillus cereus ATCC 11788 after 24 hrs; format: functional; settings: ATCC 11788, 24 h
[12] = system: Staphylococcus aureus; assay: Antibacterial activity against methicillin-resistant Staphylococcus aureus isolate 1003 after 24 hrs; format: functional; settings: isolate 1003, 24 h
[13] = system: Staphylococcus aureus; assay: Antibacterial activity against Staphylococcus aureus 4299 after 24 hrs; format: functional; settings: Staphylococcus aureus, 4299, 24 h
[14] = system: Staphylococcus saprophyticus; assay: Antibacterial activity against Staphylococcus saprophyticus ATCC 49453 after 24 hrs; format: functional; settings: ATCC 49453, 24 h
[15] = system: Enterococcus faecalis; assay: Antibacterial activity against vancomycin-resistant Enterococcus faecalis isolate 1004 after 24 hrs; format: functional; settings: isolate 1004, 24 h
[16] = system: Staphylococcus epidermidis; assay: Antibacterial activity against Staphylococcus epidermidis 12228 after 24 hrs; format: functional; settings: Staphylococcus epidermidis, 12228, 24 h
[17] = system: Staphylococcus aureus; assay: Antibacterial activity against methicillin-resistant Staphylococcus aureus isolate 42412 after 24 hrs; format: functional; settings: isolate 42412, 24 h
[18] = system: Enterococcus faecalis; assay: Antibacterial activity against vancomycin-resistant Enterococcus faecalis isolate 1008 after 24 hrs; format: functional; settings: isolate 1008, 24 h
[19] = system: Bacillus subtilis (Bacillus subtilis); assay: Antibacterial activity against Bacillus subtilis ATCC 6633 after 24 hrs; settings: ATCC 6633, 24 h
[20] = system: Enterococcus faecalis; assay: Antibacterial activity against vancomycin-resistant Enterococcus faecalis ATCC 700802 after 24 hrs; format: functional; settings: ATCC 700802, 24 h
[21] = system: Enterococcus faecalis; assay: Antibacterial activity against vancomycin-resistant Enterococcus faecalis isolate 1002 after 24 hrs; format: functional; settings: isolate 1002, 24 h
[22] = system: Staphylococcus aureus; assay: Antibacterial activity against methicillin-resistant Staphylococcus aureus ATCC 700699 after 24 hrs; format: functional; settings: ATCC 700699, 24 h
[23] = system: Staphylococcus aureus; assay: Antibacterial activity against methicillin-sensitive Staphylococcus aureus; format: functional
[24] = system: Staphylococcus aureus; assay: Antibacterial activity against methicillin-resistant Staphylococcus aureus; format: functional

| SMILES | MIC [1] [µg/mL] | MIC [2] [µg/mL] | MIC [3] [µg/mL] | MIC [4] [µg/mL] | MIC [5] [µg/mL] | MIC [6] [µg/mL] | MIC [7] [µg/mL] | MIC [8] [µg/mL] | MIC [9] [µg/mL] | MIC [10] [µg/mL] | MIC [11] [µg/mL] | MIC [12] [µg/mL] | MIC [13] [µg/mL] | MIC [14] [µg/mL] | MIC [15] [µg/mL] | MIC [16] [µg/mL] | MIC [17] [µg/mL] | MIC [18] [µg/mL] | MIC [19] [µg/mL] | MIC [20] [µg/mL] | further results |
| --- | --- | --- | --- | --- | --- | --- | --- | --- | --- | --- | --- | --- | --- | --- | --- | --- | --- | --- | --- | --- | --- |
| CCC(C)[C@@H]1NC(=O)[C@H](C)NC(=O)[C@H](NC(=O)[C@H](CO)NC(=O)[C@@H](NC(=O)[C@H](NC(=O)[C@@H](CCC(N)=O)NC(=O)[C@H](CO)NC(=O)[C@@H](NC(=O)[C@@H](Cc2ccccc2)NC)[C@@H](C)CC)[C@H](C)CC)[C@@H](C)CC)[C@H](C)OC(=O)[C@H]([C@@H](C)CC)NC1=O (some centres not stated) | 0.25 (≈ 0.208 µM) | 0.063 (≈ 0.0524 µM) |  |  |  |  |  |  |  |  |  |  |  |  |  |  |  |  |  |  |  |
| CC[C@@H](C)[C@@H](NC(=O)[C@@H](CCC(N)=O)NC(=O)[C@H](CO)NC(=O)[C@@H](NC(=O)[C@@H](Cc1ccccc1)NC)[C@@H](C)CC)C(=O)N[C@H](C(=O)N[C@@H](CO)C(=O)N[C@H]1C(=O)N[C@@H](C)C(=O)N[C@@H](C)C(=O)N[C@@H]([C@@H](C)CC)C(=O)O[C@H]1C)[C@@H](C)CC | 1 to 2 (≈ 0.863 to 1.73 µM) | 1 (≈ 0.863 µM) |  |  |  |  |  |  |  |  |  |  |  |  |  |  |  |  |  |  |  |
| CC[C@@H](C)[C@@H](NC(=O)[C@@H](CCC(N)=O)NC(=O)[C@H](CO)NC(=O)[C@@H](NC(=O)[C@@H](Cc1ccccc1)NC)[C@@H](C)CC)C(=O)N[C@H](C(=O)N[C@@H](CO)C(=O)N[C@H]1C(=O)N[C@@H](C)C(=O)N[C@@H](Cc2ccccc2)C(=O)N[C@@H]([C@@H](C)CC)C(=O)O[C@H]1C)[C@@H](C)CC | 2 (≈ 1.62 µM) |  |  |  |  |  |  |  |  |  |  |  |  |  |  |  |  |  |  |  |  |
| CC[C@@H](C)[C@@H](NC(=O)[C@@H](CCCNC(=N)N)NC(=O)[C@H](CO)NC(=O)[C@@H](NC(=O)[C@@H](Cc1ccccc1)NC)[C@@H](C)CC)C(=O)N[C@H](C(=O)N[C@@H](CO)C(=O)N[C@H]1C(=O)N[C@@H](CCCNC(=N)N)C(=O)N[C@@H](CC(C)C)C(=O)N[C@@H]([C@@H](C)CC)C(=O)O[C@H]1C)[C@@H](C)CC (H-[dNMeF]IS[dR][dI]IS[dT]RLI; ester 8-C) |  |  | 1 (≈ 0.761 µM) | 1 (≈ 0.761 µM) | < 0.0625 | 1 (≈ 0.761 µM) | < 0.0625 | < 0.0625 | 1 (≈ 0.761 µM) | 1 (≈ 0.761 µM) | 1 (≈ 0.761 µM) | 0.5 (≈ 0.38 µM) | 0.5 (≈ 0.38 µM) | < 0.0625 | 1 (≈ 0.761 µM) | < 0.0625 | 1 (≈ 0.761 µM) | 1 (≈ 0.761 µM) | < 0.0625 | 1 (≈ 0.761 µM) | MIC [21]: 1 µg/mL (≈ 0.761 µM); MIC [22]: 1 µg/mL (≈ 0.761 µM) |
| CC[C@@H](C)[C@@H](NC(=O)[C@@H](CCC(N)=O)NC(=O)[C@H](CO)NC(=O)[C@@H](NC(=O)[C@@H](Cc1ccccc1)NC)[C@@H](C)CC)C(=O)N[C@H](C(=O)N[C@@H](CO)C(=O)N[C@H]1C(=O)N[C@@H](CCCNC(=N)N)C(=O)N[C@@H]([C@@H](C)CC)C(=O)N[C@@H]([C@@H](C)CC)C(=O)O[C@H]1C)[C@@H](C)CC |  |  | 0.25 (≈ 0.194 µM) | 1 (≈ 0.777 µM) | < 0.0625 | 1 (≈ 0.777 µM) | < 0.0625 | < 0.0625 | 1 (≈ 0.777 µM) | 0.5 (≈ 0.389 µM) | 0.5 (≈ 0.389 µM) | 0.5 (≈ 0.389 µM) | 1 (≈ 0.777 µM) | < 0.0625 | 1 (≈ 0.777 µM) | < 0.0625 | 0.125 (≈ 0.0972 µM) | 1 (≈ 0.777 µM) | 0.125 (≈ 0.0972 µM) | 1 (≈ 0.777 µM) | MIC [21]: 1 µg/mL (≈ 0.777 µM); MIC [22]: 1 µg/mL (≈ 0.777 µM) |
| CC[C@@H](C)[C@@H](NC(=O)[C@@H](CCC(N)=O)NC(=O)[C@H](CO)NC(=O)[C@@H](NC(=O)[C@@H](Cc1ccccc1)NC)[C@@H](C)CC)C(=O)N[C@H](C(=O)N[C@@H](CO)C(=O)N[C@H]1C(=O)N[C@@H](C)C(=O)N[C@@H](CCCNC(=N)N)C(=O)N[C@@H]([C@@H](C)CC)C(=O)O[C@H]1C)[C@@H](C)CC |  |  |  |  |  |  |  |  |  |  |  |  |  |  |  |  |  |  |  |  | MIC [23]: 2 µg/mL (≈ 1.61 µM); MIC [24]: 2 µg/mL (≈ 1.61 µM) |

— ChEMBL document CHEMBL4020828, “Design and Syntheses of Highly Potent Teixobactin Analogues against Staphylococcus aureus, Methicillin-Resistant Staphylococcus aureus (MRSA), and Vancomycin-Resistant Enterococci (VRE) in Vitro and in Vivo” (J Med Chem, 2018)
